Source: article PMC11831560, “Development of the Pyrido[2,3-d]pyrimidin-7(8H)-one Scaffold toward Potent and Selective NUAK1 Inhibitors” (ACS Medicinal Chemistry Letters, 2025)
“And” between values parts separate entries of the source, which are not always exact repeats. Equal values may be shown once.

Key:
CDK6/Cyclin D1 = biological target: T1, CDK6/Cyclin D1 (Homo sapiens, UniProt Q00534); experiment: Adapta screening assay (Thermo Fisher); format: biochemical; details: single point at 1 μM; read-out: CDK6 % Inh.
T1 construct: purchased Thermo Fisher Scientific
Description: (§1) Activity pIC50 values and standard error of the mean (SEM) were estimated using a 4-parameter fit (Dotmatics). The SEM for all reported data was 0.2 or lower. See Experimental Procedures for minimum number of replicates per compound. Each experiment included a Standard compound whose pIC50 value was compared to a quality control chart. If the Standard pIC50 value fell outside the range of pIC50 +/-3 standard deviation, then the experiment was invalidated. […]
CDK6/cyclin D1: Adapta™ screening assay was performed by Thermo Fisher Scientific. The 2X CDK6/cyclin D1 / Rb Substrate mixture is prepared in 50 mM HEPES pH 7.5, 0.01% BRIJ-35, 10 mM MnCl2, 1 mM EGTA, 2 mM DTT, 0.02% NaN3. The final 10 µL Kinase Reaction consists of 1.75 - 7 ng CDK6/cyclin D1 and 1 µM Rb Substrate in 32.5 mM HEPES pH 7.5, 0.005% BRIJ-35, 5 mM MnCl2, […]
All single point assay determinations carried out in duplicate. […]

NUAK1 [1] = biological target: T2, NUAK1 (Homo sapiens, UniProt O60285); experiment: NanoBRET target engagement assay, HEK293 cells; details: cell-based NanoBRET target engagement assay
T2 sequence (O60285 1-661): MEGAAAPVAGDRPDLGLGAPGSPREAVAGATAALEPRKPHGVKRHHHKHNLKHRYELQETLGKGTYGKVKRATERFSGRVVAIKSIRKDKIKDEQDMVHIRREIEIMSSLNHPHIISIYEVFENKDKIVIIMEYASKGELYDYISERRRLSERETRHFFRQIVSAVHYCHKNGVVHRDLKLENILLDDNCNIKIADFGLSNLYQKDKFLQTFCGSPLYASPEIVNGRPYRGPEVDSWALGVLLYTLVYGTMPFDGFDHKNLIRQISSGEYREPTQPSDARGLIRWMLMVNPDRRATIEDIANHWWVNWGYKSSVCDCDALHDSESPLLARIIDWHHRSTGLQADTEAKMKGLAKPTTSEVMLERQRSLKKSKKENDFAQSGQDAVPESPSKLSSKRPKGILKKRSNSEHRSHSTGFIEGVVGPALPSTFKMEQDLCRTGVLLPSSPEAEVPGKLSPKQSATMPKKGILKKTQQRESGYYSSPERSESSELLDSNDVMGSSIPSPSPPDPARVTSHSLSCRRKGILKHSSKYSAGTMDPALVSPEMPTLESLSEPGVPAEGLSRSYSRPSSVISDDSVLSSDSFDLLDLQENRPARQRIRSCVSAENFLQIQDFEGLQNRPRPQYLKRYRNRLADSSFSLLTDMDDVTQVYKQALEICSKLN
Protocol: NanoBRET® target engagement assay
The binding of compounds to NUAK1 in intact cells was assessed using an NanoBRET® TE Intracellular Kinase Assay (Promega N2501). HEK293 cells transiently transfected with NanoLuc®- NUAK1 Fusion Vector (Promega NV1831) were incubated with 10 nL K5 tracer (provided in the kit, Promega N2501) and 40 nL of the test compounds in 100% DMSO in a white low volume non-binding 384 assay plate (Grenier Bio One 784904) for 90 min at 37 °C. After incubation, followed by cooling for 15 min at room temperature, 4 µL of the Intracellular TE Nano-Glo ® Substrate/Inhibitor (Promega N2160) was added to each well. The plate was read using a Pherastar FSX plate reader (BMG Labtech).
Minimum number of 2 technical replicates per compound.
as §1

NUAK1 [2] = biological target: T2, NUAK1; experiment: ADP-Glo biochemical assay NUAK1; design: purchased MRC PPU; details: for NUAK1 pIC50 / IC50: ADP-Glo assay; for IC50: read-out: NUAK1 pIC50 (converted)
Protocol: (§2) Biological experimental procedures
(§3) ADP-Glo biochemical assays
(§4) Protein kinase activity in the presence of inhibitor compounds was determined by ADP-Glo assay (Promega), as previously described.1,2 Compounds were serialised using a Labcyte Echo 520 and transferred to 384 well plates (Greiner 784201) followed by the addition 5 µL of substrate containing peptide and ATP at Km in buffer (see Table S6). 5 µL of purified protein was added and the plate was incubated for 60 minutes at room temperature (ng/well; see Table S6). 3 µL of assay mixture was transferred using an Integra Viaflo384 into a white low volume plate (Greiner 781904) prior to the addition of 3 µL of ADP-Glo Reagent™ for a further 40 minute incubation. After incubation with 6 µL of Kinase Detection Reagent for 30 minutes, plate luminescence was read (Pherastar FSX, BMG […]
(§5) 30 mM HEPES pH7.4, 3 mM MgCl2, 3 mM MnCl2, 1.2 mM DTT, 0.01% CHAPS
(§6) Table S6: Conditions for protein kinase ADP-Glo assays
(§7) ATP AT Peptide Peptide Enzyme Enzyme Assay Buffe Min.
(§8) Protein conc. P Peptide name conc. supplier amount supplier vol. r na […]
(§9) NUAK1 µM µM Sakamototide 50 µM Merck 6.7 ng PPU 10 µl A 6
(§10) A µM µM Sakamototide 100 µM Merck 1 ng PPU 10 µl B 2 […]
(§11) aMin. n: Minimum number of technical replicates per compound

CDK2-Cyclin A = CDK2-Cyclin A (Homo sapiens, UniProt P24941); experiment: Z′-LYTE screening assay (Thermo Fisher); format: biochemical; design: purchased Thermo Fisher Scientific; details: single point at 1 μM; read-out: CDK2 % Inh.
Description: Activity pIC50 values and standard error of the mean (SEM) were estimated using a 4-parameter fit (Dotmatics). The SEM for all reported data was 0.2 or lower. See Experimental Procedures for minimum number of replicates per compound. Each experiment included a Standard compound whose pIC50 value was compared to a quality control chart. If the Standard pIC50 value fell outside the range of pIC50 +/-3 standard deviation, then the experiment was invalidated.
CDK2/cyclin A: Z′-LYTE™ screening assay performed by Thermo Fisher Scientific: The 2X CDK2/cyclin A / Ser/Thr 12 mixture is prepared in 50 mM HEPES pH 7.5, 0.01% BRIJ-35, 10 mM MgCl2, 1 mM EGTA. The final 10 µL Kinase Reaction consists of 1.22 - 10.3 ng CDK2/cyclin A and 2 µM Ser/Thr 12 in 50 mM HEPES pH 7.5, 0.01% BRIJ-35, 10 mM MgCl2, 1 mM EGTA. After the 1 hour Kinase Reaction incubation, 5 µL of a 1:4096 dilution of Development Reagent A is added. […]

MARK3 = biological target: T3, MARK3 (Homo sapiens, UniProt P27448); experiment: ADP-Glo biochemical assay MARK3; details: for MARK3 pIC50 / IC50: ADP-Glo assay; for IC50: read-out: MARK3 pIC50 (converted)
T3 construct: purchased MRC PPU
Protocol: as §2, §3, §4, §5, §6, §7, §8, §9, §10, §11

Plasma protein binding = format: in vitro ADME; details: mouse plasma, read-out: PPB Fu
Description: (§12) All single point assay determinations carried out in duplicate.

Brain protein binding = format: in vitro ADME; details: mouse brain tissue, read-out: BPB Fu
Description: as §12

T3 sequence (P27448 whole entry): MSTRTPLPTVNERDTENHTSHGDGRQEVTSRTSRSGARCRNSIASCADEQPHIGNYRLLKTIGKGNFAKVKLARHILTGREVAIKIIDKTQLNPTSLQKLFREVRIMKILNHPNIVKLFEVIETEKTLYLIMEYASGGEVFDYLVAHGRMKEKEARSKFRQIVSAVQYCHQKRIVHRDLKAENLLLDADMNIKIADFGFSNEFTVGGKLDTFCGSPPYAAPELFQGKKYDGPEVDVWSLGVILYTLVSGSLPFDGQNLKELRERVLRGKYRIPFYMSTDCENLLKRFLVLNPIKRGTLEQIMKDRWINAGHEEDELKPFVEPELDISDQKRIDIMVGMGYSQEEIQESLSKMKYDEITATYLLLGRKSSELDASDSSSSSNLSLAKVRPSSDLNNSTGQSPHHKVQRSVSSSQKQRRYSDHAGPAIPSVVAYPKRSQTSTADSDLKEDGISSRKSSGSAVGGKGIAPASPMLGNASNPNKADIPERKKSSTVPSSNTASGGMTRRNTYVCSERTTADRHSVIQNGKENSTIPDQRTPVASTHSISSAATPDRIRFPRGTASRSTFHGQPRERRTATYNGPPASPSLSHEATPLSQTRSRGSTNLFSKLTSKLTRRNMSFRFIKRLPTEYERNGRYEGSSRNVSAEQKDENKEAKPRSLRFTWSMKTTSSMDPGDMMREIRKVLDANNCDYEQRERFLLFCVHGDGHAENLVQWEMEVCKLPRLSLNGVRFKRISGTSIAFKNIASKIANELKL
T1 sequence (Q00534 whole entry): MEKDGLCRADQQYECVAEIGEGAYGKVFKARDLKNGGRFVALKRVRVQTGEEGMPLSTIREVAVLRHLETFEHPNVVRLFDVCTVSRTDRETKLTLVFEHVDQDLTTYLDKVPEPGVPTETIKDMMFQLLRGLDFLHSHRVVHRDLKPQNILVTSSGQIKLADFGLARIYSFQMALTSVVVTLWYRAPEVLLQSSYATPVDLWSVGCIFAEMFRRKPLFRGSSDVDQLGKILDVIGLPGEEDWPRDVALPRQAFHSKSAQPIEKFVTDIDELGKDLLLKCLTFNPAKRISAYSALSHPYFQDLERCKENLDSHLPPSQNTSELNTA
T1 sequence (P24385 whole entry partner): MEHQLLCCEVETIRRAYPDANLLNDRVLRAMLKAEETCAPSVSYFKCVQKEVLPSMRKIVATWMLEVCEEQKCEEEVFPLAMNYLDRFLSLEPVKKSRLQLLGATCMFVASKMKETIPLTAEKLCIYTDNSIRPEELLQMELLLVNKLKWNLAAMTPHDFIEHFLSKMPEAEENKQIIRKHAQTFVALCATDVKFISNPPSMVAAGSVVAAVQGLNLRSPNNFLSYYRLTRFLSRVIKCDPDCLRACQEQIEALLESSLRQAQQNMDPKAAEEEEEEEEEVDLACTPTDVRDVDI

Structure (SMILES)	inhibition at 1 µM (CDK6/Cyclin D1) [%]	NUAK1 cell TE pIC50 (NUAK1 [1])	ligand efficiency (NUAK1 [2])	NUAK1 pIC50 (NUAK1 [2])	inhibition at 1 µM (CDK2-Cyclin A) [%]	MARK3 pIC50 (MARK3)	MARK3 Fold selectivity IC50/NUAK1 IC50 (MARK3)	IC50 (NUAK1 [2]) [nM]	fraction unbound at 5 h, 1 µM (Plasma protein binding)	fraction unbound at 5 h, 1 µM (Brain protein binding)	IC50 (MARK3) [nM]
CC(C)N1CCN(c2ccc(Nc3ncc4c(n3)N(C3CCCC3)C(=O)C4)cc2)CC1 [Compound 7]	59	6.6	0.38	8.38 and 8.4	32	6.02 and 6.0	229 fold	–	–	–	–
CN1C2CC1CN(c1ccc(Nc3ncc4cc(C#N)c(=O)n(C5CCCC5)c4n3)cc1)C2 [Compound 10]	96	6.2	–	7.8	94	5.9	83 fold	14.8	0.019	0.01	–
CN1C2CC1CN(c1ccc(Nc3ncc4ccn(CC5CCOCC5)c4n3)cc1)C2 [Compound 24]	11	7.0	–	8.5	29	5.22 and 5.2	1905 fold	–	0.152	0.09	–
Cc1cc(=O)n(C(C)C)c2nc(Nc3ccc(N4CC5CC(C4)N5C)cc3)ncc12 [Compound 20]	39	6.0	–	7.68 and 7.7	17	6.0	47 fold	–	–	–	–
CN1CCN(c2ccc(Nc3ncc4cc(C#N)c(=O)n(C5CCCC5)c4n3)cc2)CC1 [Compound 3, Narazaciclib, reference compound]	–	–	0.33	7.58	–	5.8	56 fold	–	–	0.012	1480
CC(C)N1CCN(c2ccc(Nc3ncc4ccn(CC5CCOC(C)(C)C5)c4n3)cc2)CC1 (centres unmarked) [Compound 26]	–	6.8	–	8.6	–	5.2	–	2.75	–	–	–
Cc1cc(=O)n(C2CCCC2)c2nc(Nc3ccc(N4CCN(C)CC4)cc3)ncc12 [Compound 4]	87	6.9	–	8.3	57	6.4	95 fold and 96 fold	4.57	–	–	437
CC(C)N1CCN(c2ccc(Nc3ncc4ccn(C5CCCC5)c4n3)cc2)CC1 [Compound 8]	79	6.8	0.39	8.3	84	6.2	138 fold	4.57	–	–	–
CC(C)N1CCN(c2ccc(Nc3ncc4ccn(CC5CCCO5)c4n3)cc2)CC1 (centres unmarked) [Compound 27]	–	6.9	–	8.5	–	6.2	200 fold and 201 fold	3.39	–	0.039	676
CN1C2CC1CN(c1ccc(Nc3ncc4ccn(CC5CCCO5)c4n3)cc1)C2 (centres unmarked) [Compound 28]	–	6.7	–	8.3	–	5.68 and 5.7	380 fold	5.5	–	–	–
Cc1cc(=O)n(C2CCCC2)c2nc(Nc3ccc(N4CC5CC(C4)N5C)cc3)ncc12 [Compound 9]	67	6.5	–	8.3	38	6.2	112 fold	5.5	0.011	0.006	–
